Data from ChEMBL document CHEMBL1201862, “PubChem BioAssay data set” (2004).
Values joined by “and” are separate entries in the source; they are usually repeats but may differ in a detail not shown here. Equal entries are not always repeated.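 Cultured in 96-well plates, cells were exposed to test compound for 48 hours across five concentrations. GI50 = concentration required for 50% inhibition of growth.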 Active and inactive are the calls of the source. Rule as the data show it: active = GI50 up to about 1.1 µM and inactive = higher.

Experiments:
Experiment in all cases: NCI tumour cell line growth inhibition, 48 h
SF-295 = tested on: SF-295
MDA-N = tested on: MDA-N
SF-268 = tested on: SF-268
M14 = tested on: M14
SW-620 = tested on: SW-620
NCI-H226 = tested on: NCI-H226
HCT-15 = tested on: HCT-15
786-0 = tested on: 786-0
NCI/ADR-RES = tested on: NCI/ADR-RES
LOX IMVI = tested on: LOX IMVI
EKVX = tested on: EKVX
K562 = tested on: K562
NCI-H522 = tested on: NCI-H522
TK-10 = tested on: TK-10
MDA-MB-435 = tested on: MDA-MB-435
SR = tested on: SR
Hs-578T = tested on: Hs-578T
UACC-257 = tested on: UACC-257
IGROV-1 = tested on: IGROV-1
RXF 393 = tested on: RXF 393

| SMILES | GI50 (SF-295) | GI50 (MDA-N) | GI50 (SF-268) | GI50 (M14) | GI50 (SW-620) | GI50 (NCI-H226) | GI50 (HCT-15) [µM] | GI50 (786-0) | GI50 (NCI/ADR-RES) | GI50 (LOX IMVI) | GI50 (EKVX) | GI50 (K562) | GI50 (NCI-H522) | GI50 (TK-10) | GI50 (MDA-MB-435) | GI50 (SR) | GI50 (Hs-578T) | GI50 (UACC-257) | GI50 (IGROV-1) | GI50 (RXF 393) |
| --- | --- | --- | --- | --- | --- | --- | --- | --- | --- | --- | --- | --- | --- | --- | --- | --- | --- | --- | --- | --- |
| O=C1CSC(c2cccc(Cl)c2)N1c1ccc(-c2ccc(-n3c(-c4ccccc4)nc4ccccc4c3=O)cc2)cc1 (stereo not drawn) | 51.8 µM (inactive) | 47.9 µM (inactive) | 54.1 µM (inactive) | 53.6 µM (inactive) | > 100 µM (inactive) | 67 µM (inactive) | 33.5 | 43.6 µM (inactive) | 36.9 µM (inactive) | 35.1 µM (inactive) | 59 µM (inactive) | 35.6 µM (inactive) | 41.6 µM (inactive) | 32.6 µM (inactive) | 52.1 µM (inactive) | 18.9 µM (inactive) | > 100 µM (inactive) | 80.5 µM (inactive) | 77.4 µM (inactive) | – |
| N#Cc1cc2c(cc1C#N)/C(=N\c1cccc(N)n1)N/C2=N\c1cccc(N)n1 | 21.3 µM (inactive) | 20.3 µM (inactive) | 15.1 µM (inactive) | 17.5 µM (inactive) | 11.4 µM (inactive) | > 100 µM (inactive) | 16.3 | 12.9 µM (inactive) | 19.2 µM (inactive) | 18.8 µM (inactive) | > 100 µM (inactive) | 13.4 µM (inactive) | 9.38 µM (inactive) | 19.3 µM (inactive) | 19.1 µM (inactive) | 4.85 µM (inactive) | 18.5 µM (inactive) | 28.1 µM (inactive) | 20.7 µM (inactive) | – |
| COc1ccc2[nH]c(C(=O)N3CC(CCl)c4ccc(N)cc43)cc2c1 (stereo not drawn) | 0.201 µM (active) | 0.144 µM (active) | 0.0491 µM (active) | 0.146 µM (active) | 0.173 µM (active) | 0.32 µM (active) | 0.287 | 0.233 µM (active) | 0.0912 µM (active) | 0.177 µM (active) | 0.368 µM (active) | 0.128 µM (active) | 0.0161 µM (active) | 0.37 µM (active) | 0.264 µM (active) | – | 0.335 µM (active) | 0.241 µM (active) | 0.175 µM (active) | 0.09 µM (active) |
| CCN(CC)c1ccc(/C=C/C=C2C(=O)NC(=S)NC2=O)cc1 | > 83.6 µM (inactive) | 12.4 µM (inactive) | 22.5 µM (inactive) | 35.4 µM (inactive) | > 33.9 µM (inactive) | 28.6 µM (inactive) | > 38.7 | 27.7 µM (inactive) | 10.4 µM (inactive) | 13.5 µM (inactive) | > 62.4 µM (inactive) | – | – | > 62.2 µM (inactive) | 8.67 µM (inactive) | 2.53 µM (inactive) | 11 µM (inactive) | 58.6 µM (inactive) | > 100 µM (inactive) | 8.07 µM (inactive) |
| COC(=O)C1=C(C(=O)OC)C(N(C)C)C(C(=O)OC)=C(C(=O)OC)S1 | > 100 µM (inactive) | > 100 µM (inactive) | > 100 µM (inactive) | > 100 µM (inactive) | > 100 µM (inactive) | > 100 µM (inactive) | > 100 | > 100 µM (inactive) | > 100 µM (inactive) | > 100 µM (inactive) | – | > 100 µM (inactive) | – | > 100 µM (inactive) | > 100 µM (inactive) | > 100 µM (inactive) | > 100 µM (inactive) | > 100 µM (inactive) | – | > 100 µM (inactive) |
| Cc1cc(C)nc(SCCc2cccc[n+]2C)n1 | > 100 µM (inactive) | > 100 µM (inactive) | > 100 µM (inactive) | > 100 µM (inactive) | > 100 µM (inactive) | > 100 µM (inactive) | > 100 | > 100 µM (inactive) | > 100 µM (inactive) | > 100 µM (inactive) | 24.9 µM (inactive) | > 100 µM (inactive) | > 100 µM (inactive) | > 100 µM (inactive) | > 100 µM (inactive) | – | > 100 µM (inactive) | > 100 µM (inactive) | > 100 µM (inactive) | > 100 µM (inactive) |
| CCOC(=O)C(NC(=O)Nc1ccc(Cl)cc1)(OC)C(F)(F)F (stereo not drawn) | – | 3.12 µM (inactive) | 27.7 µM (inactive) | 8.24 µM (inactive) | 64.4 µM (inactive) | – | 0.248 | 13.8 µM (inactive) | 4.66 µM (inactive) | > 100 µM (inactive) | 56.5 µM (inactive) | 0.832 µM (active) | – | 30.7 µM (inactive) | 3.25 µM (inactive) | 9.23 µM (inactive) | 42.4 µM (inactive) | 21.9 µM (inactive) | > 100 µM (inactive) | > 100 µM (inactive) |
| COC(O)C(=O)c1ccc2c(c1)CC1(C2)Cc2cc3c(cc2C1=O)CCC3 (stereo not drawn) | 23.7 µM (inactive) | 19.9 µM (inactive) | 19.4 µM (inactive) | 19.3 µM (inactive) | 14.5 µM (inactive) | 19.5 µM (inactive) | 22.2 | 17.6 µM (inactive) | 42.6 µM (inactive) | 2.69 µM (inactive) | 19.2 µM (inactive) | 2.94 µM (inactive) | 19 µM (inactive) | 21.6 µM (inactive) | 17.1 µM (inactive) | > 10 µM (inactive) | 20.5 µM (inactive) | 21.4 µM (inactive) | 16.1 µM (inactive) | – |
| COc1nc2ncc([C@@H](OC(C)=O)[C@@H](COC(C)=O)OC(C)=O)nc2c(=O)[nH]1 | > 100 µM (inactive) | > 100 µM (inactive) | > 100 µM (inactive) and 83.4 µM (inactive) | > 100 µM (inactive) | > 100 µM (inactive) | 51.5 µM (inactive) | > 100 | > 100 µM (inactive) | > 100 µM (inactive) | > 100 µM (inactive) | > 100 µM (inactive) | > 100 µM (inactive) | – | > 100 µM (inactive) | > 100 µM (inactive) | – | > 100 µM (inactive) | > 100 µM (inactive) | > 100 µM (inactive) | > 100 µM (inactive) |
| Cc1c(O)nc(-n2[nH]c3c(c2=O)CCCC3)[nH]c1=O | > 100 µM (inactive) | > 100 µM (inactive) | > 100 µM (inactive) | > 100 µM (inactive) | > 100 µM (inactive) | > 100 µM (inactive) | > 100 | > 100 µM (inactive) | > 100 µM (inactive) | – | > 100 µM (inactive) | > 100 µM (inactive) | > 100 µM (inactive) | > 100 µM (inactive) | > 100 µM (inactive) | > 100 µM (inactive) | > 100 µM (inactive) | > 100 µM (inactive) | > 100 µM (inactive) | > 100 µM (inactive) |
| COc1ccc2[nH]c3ccc4cc[n+](CCN5CCC(C6CCN(CC[n+]7ccc8ccc9[nH]c%10ccc(OC)cc%10c9c8c7)CC6)CC5)cc4c3c2c1 | 1.64 µM (inactive) | 2.96 µM (inactive) | 1.97 µM (inactive) | > 50 µM (inactive) | 0.316 µM (active) | 29.4 µM (inactive) | 2.24 | 0.249 µM (active) | 19.5 µM (inactive) | – | > 50 µM (inactive) | 0.228 µM (active) | 0.875 µM (active) | 21.4 µM (inactive) | > 50 µM (inactive) | 0.117 µM (active) | 33 µM (inactive) | 35.2 µM (inactive) | 0.352 µM (active) | 0.569 µM (active) |
